The values that follow come from US20030162777A1, “Novel N-acylated heterocycles” (Recordati S.A., priority 2001, published 2003).

The structures appear in SMILES notation.

This assay concerns the target T1, human 5HT1A-serotonergic receptor (Homo sapiens, UniProt P08908).
T1 construct: expressed in transfected cells; host or cells: HeLa (human cell line), stably transfected; cell membranes used
T1 sequence (P08908 1-422): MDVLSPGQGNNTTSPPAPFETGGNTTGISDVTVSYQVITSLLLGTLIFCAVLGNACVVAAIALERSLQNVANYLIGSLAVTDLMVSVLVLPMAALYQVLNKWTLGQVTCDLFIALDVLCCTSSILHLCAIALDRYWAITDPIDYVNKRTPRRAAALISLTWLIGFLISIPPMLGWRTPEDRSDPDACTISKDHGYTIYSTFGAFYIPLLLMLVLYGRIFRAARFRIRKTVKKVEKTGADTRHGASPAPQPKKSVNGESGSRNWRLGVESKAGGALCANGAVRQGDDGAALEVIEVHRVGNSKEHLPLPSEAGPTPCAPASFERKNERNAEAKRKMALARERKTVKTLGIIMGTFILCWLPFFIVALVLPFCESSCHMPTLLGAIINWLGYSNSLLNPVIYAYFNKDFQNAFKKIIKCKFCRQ
In words: Radioligand binding to recombinant 5-HT1A receptors. The settings on record: [3H]8-OH-DPAT 1 nM, membranes of HeLa cells with human 5-HT1A receptor; Ki from IC50 by Cheng & Prusoff; read-out: Binding affinity for 5HT1A receptors, Ki. The method, boiled down: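 Displacement of 1 nM [3H]8-OH-DPAT (30 min, 30 °C, Tris-HCl pH 7.4 with MgCl2 and pargyline) from recombinant human 5-HT1A in transfected HeLa membranes, stopped by filtration. Specific binding defined against 10 μM 5-HT; IC50 by nonlinear fitting, then Ki by Cheng–Prusoff.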
With `O=C(Cc1cccs1)N1c2ccccc2CCC1CN1CCN(c2nccc3ccccc23)CC1` (stereo not shown) [Example 75A8, 1-(1-Isoquinolinyl)-4-[1-(2-thienyacetyl)-1,2,3,4-tetrahydroquinolin-2-ylmethyl]piperazine], the inhibitory constant (Ki) was 17 nM. Under `O=C(Cc1ccccc1Cl)N1c2ccccc2CCC1CN1CCN(c2cccc3[nH]ccc23)CC1` (stereo not shown) [Example 68A45, 1-[1-[2-(2-Chlorophenylacetyl)]-1,2,3,4-tetrahydroquinoline-2-ylmethyl]-4-(4-indolyl)piperazine] stands 8.6 nM. The same measure for `O=C(Cc1ccccc1F)N1c2ccccc2CCC1CN1CCN(c2cccc3[nH]ccc23)CC1` (stereo not shown) [Example 68A63, 1-(4-Indolyl)-4-[1-[2-(2-fluorophenylacetyl)]-1,2,3,4-tetrahydroquinoline-2-ylmethyl]piperazine]: 8.7 nM; for `CC(=O)N1CCC(C(=O)N2c3ccccc3CCC2CN2CCN(c3cccc4[nH]ccc34)CC2)CC1` (stereo not shown) [Example 68A38, 1-[1-(1-Acetylpiperidine-4-carbonyl)-1,2,3,4-tetrahydroquinoline-2-ylmethyl]-4-(4-indolyl)piperazine]: 24.4 nM; for `COc1ccc(C(=O)N2c3ccccc3CCC2CN2CCN(c3ccc(F)cc3OC)CC2)cc1` (stereo not shown) [Example 74A5, 1-(4-Fluoro-2-methoxyphenyl)-4-[1-(4-methoxybenzoyl)-1,2,3,4-tetrahydroquinolin-2-ylmethy]piperazine]: 2 nM.

In the case of `O=C(C1CCCCC1)N1c2ccccc2CCC1CN1CCC(c2c(F)cccc2Cl)CC1` (stereo not shown) [Example 72A53, 4-(2-Chloro-6-fluorophenyl)-1-(1-cyclohexanecarbonyl-1,2,3,4-tetrahydroquinolin-2-ylmethyl)piperidine], the Ki came out at 6.1 nM. On to `COc1cc(F)ccc1N1CCN(CC2CCc3cc(-c4c(C)noc4C)ccc3N2C(=O)C2CCCCC2)CC1` (stereo not shown) [Example 64, 1-[1-Cyclohexanecarbonyl-6-(3,5-dimethylisoxazol-4-yl)-1,2,3,4-tetrahydroquinoline-2-ylmethyl]-4-(4-fluoro-2-methoxyphenyl)piperazine], for which the inhibition constant (Ki) was found to be 23.9 nM.

With `CCCCCNC(=O)N1c2ccccc2CCC1CN1CCN(c2cccc3[nH]ccc23)CC1` (stereo not shown) [Example 69A11, 1-(4-Indolyl)-4-(1-pentylaminocarbonyl-1,2,3,4-tetrahydroquinoline-2-ylmethyl]piperazine], the Ki worked out at 10.4 nM. Under `Cn1ccc2c(N3CCN(CC4CCc5ccccc5N4C(=O)C4CCCCC4)CC3)cccc21` (stereo not shown) [Example 15, 1-(1-Cyclohexanecarbonyl-1,2,3,4-tetrahydroquinoline-2-ylmethyl)-4-(1-methyl-4-indolyl)piperazine] stands 8.9 nM. The same measure for `COc1cc(Cl)ccc1N1CCN(CC2CCc3ccccc3N2C(=O)C2CCCCC2)CC1` (stereo not shown) [Example 62A2, 1-(4-Chloro-2-methoxyphenyl)-4-(1-cyclohexanecarbonyl-1,2,3,4-tetrahydroquinoline-2-ylmethyl)piperazine]: 15.6 nM; for `CC(=O)N1CCC(C(=O)N2c3ccccc3CCC2CN2CCN(c3nccc4ccccc34)CC2)CC1` (stereo not shown) [Example 75A7, 1-[1-(1-Acetyl-4-piperidinecarbonyl)-1,2,3,4-tetrahydroquinolin-2-ylmethyl]-4-(1-isoquinolinyl)piperazine]: 5.4 nM; for `O=C(c1cccc(Cl)c1)N1c2ccccc2CCC1CN1CCN(c2cccc3[nH]ccc23)CC1` (stereo not shown) [Example 68A6, 1-[1-(3-Chlorobenzoyl)-1,2,3,4-tetrahydroquinoline-2-ylmethyl]-4-(4-indolyl)piperazine]: 14.2 nM. Under `O=C(C1CCCCC1)N1c2ccccc2CCC1CN1CCC(c2cccc(Cl)c2)CC1` (stereo not shown) [Example 72A68, 4-(3-Chlorophenyl)-1-(1-cyclohexanecarbonyl-1,2,3,4-tetrahydroquinolin-2-ylmethyl)piperidine] stands 38.6 nM. Take `O=C(COc1ccccc1)N1c2ccccc2CCC1CN1CCN(c2cccc3[nH]ccc23)CC1` (stereo not shown) [Example 68A42, 1-(4-Indolyl)-4-[1-(2-phenoxyacetyl)-1,2,3,4-tetrahydroquinoline-2-ylmethyl]piperazine]: the inhibition constant Ki is 19.8 nM. The same measure for `O=C(c1ccco1)N1c2ccccc2CCC1CN1CCN(c2cccc3c2OCCO3)CC1` (stereo not shown) [Example 76A3, 1-(2,3-Dihydrobenzo[1,4]dioxin-5-yl)-4-[1-(2-furanecarbonyl)-1,2,3,4-tetrahydroquinolin-2-ylmethyl]piperazine]: 5 nM; for `COc1cc(C)ccc1N1CCN(CC2CCc3ccccc3N2C(=O)C2CCCCC2)CC1` (stereo not shown) [Example 86A, 1-(1-Cyclohexanecarbonyl-1,2,3,4-tetrahydroquinoline-2-ylmethyl)-4-(2-methoxy-4-methylphenyl)piperazine]: 18.2 nM. Under `CN(C)c1ccc(C(=O)N2c3ccccc3CCC2CN2CCN(c3cccc4[nH]ccc34)CC2)cc1` (stereo not shown) [Example 68A1, 1-[1-(4-Dimethylaminobenzoyl)-1,2,3,4-tetrahydroquinoline-2-ylmethyl]-4-(4-indolyl)piperazine] stands 23.9 nM; under `COCCC(=O)N1c2ccccc2CCC1CN1CCN(c2cccc3[nH]ccc23)CC1` (stereo not shown) [Example 11, 1-[1-(3-Methoxypropionyl)-1,2,3,4-tetrahydroquinoline-2-ylmethyl]-4-(4-indolyl)piperazine], 40.8 nM. With `O=C(Cc1ccsc1)N1c2ccccc2CCC1CN1CCN(c2nccc3ccccc23)CC1` (stereo not shown) [Example 75A9, 1-(1-Isoquinolinyl)-4-[1-(3-thienyacetyl)-1,2,3,4-tetrahydroquinolin-2-ylmethyl]piperazine], the inhibition constant (Ki) is 16.1 nM.

Take `Cc1ccc(S(=O)(=O)N2c3ccccc3CCC2CN2CCN(c3cccc4[nH]ccc34)CC2)cc1` (stereo not shown) [Example 70A3, 1(4-Indolyl)-4-[1-(4-methylphenylsulphonyl)-1,2,3,4-tetrahydroquinoline-2-ylmethyl]piperazine]: the inhibition constant (Ki) is 15.2 nM. Under `CC(C)(C)OC(=O)N1CCC[C@@H]1C(=O)N1c2ccccc2CCC1CN1CCN(c2cccc3[nH]ccc23)CC1` (stereo partly drawn) [Example 71A4, 1-[1-(1-tert-Butoxycarbonyl-(2R)-pyrrolidin-2yl)carbonyl-1,2,3,4-tetrahydroquinoline-2-ylmethyl]-4-(4-indolyl)piperazine] stands 45.9 nM; under `O=C(CCCc1ccccc1)N1c2ccccc2CCC1CN1CCN(c2cccc3[nH]ccc23)CC1` (stereo not shown) [Example 68A66, 1-(4-Indolyl)-1-[1-(4-phenylbutanoyl)-1,2,3,4-tetrahydroquinoline-2-ylmethyl]piperazine], 19.6 nM; under `O=C(C1CCCCC1)N1c2ccccc2CCC1CN1CCN(c2ccccc2OS(=O)(=O)C(F)(F)F)CC1` (stereo not shown) [Example 79, 1-(1-Cyclohexanecarbonyl-1,2,3,4-tetrahydroquinoline-2-ylmethyl)-4-(2-triluoromethanesulphonyloxyphenyl)piperazine], 4.5 nM.

For the compound `O=C(C1CCCCC1)N1c2ccccc2CCC1CN1CCC(c2ccccc2)CC1` (stereo not shown) [Example 72A3, 1-(1-Cyclohexanecarbonyl-1,2,3,4-tetrahydroquinolin-2-ylmethyl)-4-phenylpiperidine], the Ki is 47.2 nM. Under `O=C(NCCc1ccccc1)N1c2ccccc2CCC1CN1CCN(c2cccc3[nH]ccc23)CC1` (stereo not shown) [Example 69A10, 1(4-Indolyl)-4-[1-(2-phenylethylaminocarbonyl)-1,2,3,4-tetrahydroquinoline-2-ylmethyl]piperazine] stands 13.5 nM. The same measure for `O=C(c1ccc(O)cc1)N1c2ccccc2CCC1CN1CCN(c2cccc3[nH]ccc23)CC1` (stereo not shown) [Example 68A68, 1-[1-(4-Hydroxybenzoyl)-1,2,3,4-tetrahydroquinoline-2-ylmethyl]-4-(4-indolyl)piperazine]: 7.5 nM; for `COc1cccc(N2CCN(CC3CCc4ccccc4N3C(=O)C3CCCCC3)CC2)n1` (stereo not shown) [Example 35A35, 1-(1-Cyclohexanecarbonyl-1,2,3,4-tetrahydroquinoline-2-ylmethyl)-4-(6-methoxy-2-pyridinyl)piperazine]: 6.2 nM. Consider `O=C(C1CCCCC1)N1c2ccccc2CCC1CN1CCN(c2cc(Cl)cc3c2OCCO3)CC1` (stereo not shown) [Example 60A11, 1-(7-Chloro-2,3-dihydro-1,4-benzodioxin-5-yl)-4-(1-cyclohexanecarbonyl-1,2,3,4-tetrahydroquinoline-2-ylmethyl)piperazine], for which the inhibition constant Ki turned out to be 10.6 nM. In the case of `COc1ccc(S(=O)(=O)N2c3ccccc3CCC2CN2CCN(c3cccc4[nH]ccc34)CC2)cc1` (stereo not shown) [Example 70A2, 1(4-Indolyl)-4-[1-(4-methoxyphenylsulphonyl)-1,2,3,4-tetrahydroquinoline-2-ylmethyl]piperazine], the inhibition constant Ki was determined as 18.8 nM. The same measure for `COc1ccc(CC(=O)N2c3ccccc3CCC2CN2CCN(c3cccc4[nH]ccc34)CC2)cc1` (stereo not shown) [Example 68A43, 1-(4-Indolyl)-4-[1-[2-(4-methoxyphenylacetyl)]-1,2,3,4-tetrahydroquinoline-2-ylmethyl]piperazine]: 42.7 nM; for `O=C(Cc1ccsc1)N1c2ccccc2CCC1CN1CCN(c2cccc3[nH]ccc23)CC1` (stereo not shown) [Example 68A40, 1-(4-Indolyl)-4-[1-[2-(3-thienylacetyl)]-1,2,3,4-tetrahydroquinoline-2-ylmethyl]piperazine]: 7.5 nM.
